From ChEMBL document CHEMBL3988442, “University of Dundee, Small-Polar-MMV Screening Library” (2021) come the findings set out here.

In this assay the test system is Wolbachia pipientis. Put plainly: Anti-Wolbachia Cell-Based Screen. In kind it is functional. The note with it: for IC50: Wolbachia pipientis.

As usually defined, the pIC50 is the IC50 on a negative log10 scale, so that one unit is a factor of ten. A low value points to a high IC50. A word on the IC50: it is the concentration that gives 50% inhibition. A higher IC50 goes with weaker potency in that assay. `O=C(CNC(=O)c1ccc(Cl)cc1)Nc1nccs1` had a pIC50 of 5.243 and an IC50 of 3.56 µM.
The compound `Cc1c(CNCC(C)Oc2cccnc2)c2ccccc2n1CC(N)=O` (stereo not given) showed an IC50 greater than 10 µM.
As to `CC(C(=O)N1CCCN(Cc2ccc(C#N)cc2)CC1)n1cncn1` (stereo not given), the IC50 is greater than 10 µM.
The same measure, in the same setting: in the case of `Cc1cc(C)n(CC2CCCN2C(=O)CCc2ccco2)n1` (stereo not given) it was greater than 10 µM.
In turn, `Cc1c[nH]c(CN2CCOC(c3ccc(Cl)cc3)C2)c(C)c1=O` (stereo not given) showed a pIC50 of 5.539 and an IC50 of 2.63 µM.
In the case of `NS(=O)(=O)c1cnn(CCC(=O)N(Cc2ccccc2)C2CC2)c1`, the IC50 was greater than 10 µM.
Consider `Cc1nc2cc(-c3nccn3C)nn2c(N2CCCC2)c1C`, for which the pIC50 is less than 5 and the IC50 is 9.95 µM.
For `Cc1ccc(-c2nc(CN3CCn4c(C)nnc4C3)cs2)o1`, the IC50 is greater than 10 µM.
Still for that read-out and setting: to `Cc1csc(CCCNC(=O)NC2CC(=O)N(C(C)(C)C)C2)n1` (stereo not given) belongs greater than 10 µM; to `CC1(C(=O)N2CCN(c3ncccn3)CC2)CNCCO1` (stereo not given), greater than 10 µM.
Still for that read-out and setting: in the case of `Cn1cc(CN2C[C@@H]3CCC[C@@H](OCc4cccnc4)[C@@H]3C2)cn1` it was greater than 10 µM; in that of `NC(=O)C1CCN(c2nc3nccc(-c4ccccn4)c3c(=O)[nH]2)CC1`, greater than 10 µM; in that of `Cn1nccc1C(=O)N1CCCC2(CCN(c3ccsc3)C2=O)C1` (stereo not given), greater than 10 µM.
For the compound `Cc1cccc(N2CCN(C(=O)c3c(C)nn(C)c3C)CC2)c1C`, the pIC50 amounted to 5.626 and the IC50 is 2.32 µM.
`CCc1c(C)nc2cc(-c3nccn3C)nn2c1N1CCCC(CO)C1` (stereo not given) had a pIC50 of 5.187 and an IC50 of 5.95 µM.
The matching figures for `Cc1nn(C)c(C)c1C1CCCN1Cc1nc2ccccc2o1` (stereo not given): 5.128 and greater than 10 µM.
In the same order, the values of `CCOc1ccc2nc(NC(=O)c3c(C(=O)O)cnn3C)sc2c1` are 5.956 and 1.47 µM.
`O=C(CC1CC1)NCc1cc(=O)n2c(n1)CN(Cc1ccoc1)CCC2` had a concentration for half-maximal inhibition (IC50) greater than 10 µM.
As for `Cc1cc2nc(C(C)C)cc(NCC(c3ccccn3)N(C)C)n2n1` (stereo not given), the pIC50 is on record as 5.809 and 1.75 µM corresponded to half-maximal inhibition (IC50).
The compound `c1ccc(-c2nc(CN3CCCC3Cn3cncn3)no2)cc1` (stereo not given) showed an IC50 greater than 10 µM.
`CCOC(=O)c1sc2ccsc2c1CNC(=O)C(C)(C)C#N` showed a pIC50 of 5.24 and an IC50 of 6.09 µM.
In the same order, the values of `Cc1nn(C)c2nc(N(Cc3nccs3)C3CC3)sc12` are 5.592 and 2.9 µM.
For the compound `Cc1nn(C)c(C)c1C(=O)NCc1ccnc(OCC(F)(F)F)c1`, the IC50 is greater than 10 µM.
As to `Cc1ncc(CN(C)Cn2nc(-c3ccccc3)oc2=O)s1`, the pIC50 is 5.124 and the IC50 is 5 µM.
Compound `Cc1cc(CN2CCCC2)cc(Oc2nc(C)cnc2C)c1` gave an IC50 greater than 10 µM.
Still for that read-out and setting: to `CC(C)C(C(=O)N1CCCN(Cc2nccn2C)CC1)N1CCCC1` (stereo not given) belongs greater than 10 µM.
With `CCc1cc(N(C)Cc2cc[nH]n2)n2nc(C)c(C)c2n1`, the pIC50 is listed as 5.579 and the IC50 was 4.79 µM.
With `O=C1O[C@@H]2CN(C3CCOCC3)C[C@@H]2N1CCCc1ccc(F)cc1`, the IC50 is greater than 10 µM.
Still for that read-out and setting: in the case of `COc1ncccc1C(=O)N1CCc2c(ncnc2N2CCOCC2)C1` it was greater than 10 µM.
Same read-out and setting: in the case of `CN(C)c1cc(CNCc2ccc(N3CCOCC3)cc2)ccn1` it was greater than 10 µM.
The same measure, in the same setting: to `CCOc1nnc(CN2CCN(CCOC)CC2)s1` belongs greater than 10 µM.
In turn, `CC(=O)N1CCN(C(=O)CCn2c(C)nc3ccccc3c2=O)CC1` gave an IC50 greater than 10 µM.
Still for that read-out and setting: to `CN1CCC/C1=N\S(=O)(=O)c1ccc(NC(=O)c2ccc(Cl)s2)cc1` belongs greater than 10 µM.
In the case of `CC(=O)NC(C)c1ccc(OCC2CC2)c(F)c1` (stereo not given), the pIC50 is 5.914 and the IC50 is 1.47 µM.
Compound `CNc1ncc(CN(C)c2ncnc3onc(C)c23)cn1` showed an IC50 greater than 10 µM.
Same read-out and setting: in the case of `O=C(CCc1ccc(Cl)s1)N1CCC(N2CCNC2=O)CC1` it was greater than 10 µM.
In turn, `CCc1nc(C)sc1CN1CCc2[nH]nc(-c3ccc(F)c(F)c3)c2C1` showed a pIC50 of 5.065 and an IC50 of 4.91 µM.
Turning to `CCc1nc(N)nc(N2CCCC3(CCN(C)CC3)CC2)c1C`, the IC50 is greater than 10 µM.
Take `CCCNC(=O)c1ncn2c1CN(CC(C)C)S(=O)(=O)c1ccccc1-2`: the IC50 is greater than 10 µM.
In turn, `Cc1nn(C)c2nc(N3CCCCC3c3ccc(F)cc3)sc12` (stereo not given) showed a pIC50 of 5.674 and an IC50 of 2.24 µM.
In the same order, the values of `O=C(Nc1ccccn1)NC(CCCO)c1ccccc1` (stereo not given) are less than 5 and 6.17 µM.
`O=C(CCc1ccccc1Cl)NS(=O)(=O)c1ccc2c(c1)OCCO2` showed an IC50 greater than 10 µM.
Still for that read-out and setting: to `CCc1ccc(CN(C(=O)CCn2cc(S(N)(=O)=O)cn2)C2CC2)cc1` belongs greater than 10 µM.
`Cc1ccc(F)c2c1N(C(=O)Cc1c(C)nn(C)c1C)CCC2` gave a pIC50 of 5.021 and an IC50 of 8.03 µM.
In turn, `O=C(NCCCn1cncn1)N1CCCCCC1` showed an IC50 greater than 10 µM.
The compound `CCOCCCn1c(NC(=O)c2cnc(C)cn2)nc2ccccc21` had a pIC50 of 5.233 and an IC50 of 5.75 µM.
The compound `CCCS(=O)(=O)N1CCN(c2cc(-n3nc(C)cc3C)nc(C)n2)CC1` had an IC50 greater than 10 µM.
For `CC(C)Cc1cc(C(=O)NCC2CCCN(Cc3ccco3)C2)on1` (stereo not given), the pIC50 worked out at 5.687 and 1.41 µM corresponded to half-maximal inhibition (IC50).
The matching figures for `CCC(CC)C(=O)N1CCCc2c(cnn2C)C1`: 5.338 and 5.15 µM.
The matching figures for `COCc1noc(-c2ccc(N(C)Cc3ncccc3C)nc2)n1`: 5.66 and 3.11 µM.
In turn, `COc1ccc(Br)c(C(=O)NCC2CC2)c1` had an IC50 greater than 10 µM.
The same measure, in the same setting: to `COc1ccc(C(C)N(C)Cc2c(C(C)C)[nH]c3ncccc23)cc1` (stereo not given) belongs greater than 10 µM.
The compound `c1cnn(CC2CCCN2c2ncnc3ccsc23)c1` (stereo not given) had a pIC50 of 5.454 and an IC50 of 3.17 µM.
In the case of `CC1CCCN1Cc1cccc(C(=O)Nc2ccc3c(c2)CCC3=O)c1` (stereo not given), the 50% inhibitory concentration (IC50) is greater than 10 µM.
Still for that read-out and setting: to `CC(C(=O)N1CCCN(Cc2cnn(C)c2)CC1)n1ccnc1` (stereo not given) belongs greater than 10 µM.
On the same count and under the same terms, in the case of `CC(C)C(=O)Nc1ccc(C(O)Cn2nc(-c3cccs3)oc2=O)cc1` (stereo not given) it was greater than 10 µM.
The same measure, in the same setting: to `OC1(CN2CCC(Oc3cccc(C(F)(F)F)c3)CC2)CNCCOC1` (stereo not given) belongs greater than 10 µM; to `COCCCN1Cc2cccc(NC(=O)C(C)(C)C)c2C1`, greater than 10 µM; to `O=C(NCCN1CCOCC1)N(CCCO)C1CCCc2ccccc21` (stereo not given), greater than 10 µM.
`COc1c(CNCC(O)COc2ccc3c(c2)OCO3)c(C)nn1C` (stereo not given): the IC50 was greater than 10 µM.
`CC(c1ccco1)N(C)Cc1cccc(C(=O)Nc2nccn2C)c1` (stereo not given) gave a pIC50 of 5.538 and an IC50 of 3.77 µM.
Turning to `Cc1cc(NCCCNc2cccnc2)n2nc(C)c(C)c2n1`, the pIC50 is 5.158 and the IC50 is greater than 10 µM.
The matching figures for `CSc1ccc(NCc2csc(C)n2)cc1F`: 5.126 and 5.53 µM.
With `Cc1csc(Nc2nccnc2C2CCCN2S(C)(=O)=O)n1` (stereo not given), the IC50 is greater than 10 µM.
The compound `CC(=O)N(Cc1noc(C2CC2)n1)C1CCN(Cc2cccnc2)C1` (stereo not given) showed an IC50 greater than 10 µM.
`Cc1ccc(CSc2nc(N)cc(NCCS(=O)(=O)N(C)C)n2)cc1` showed a pIC50 of 5.214 and an IC50 of 4.21 µM.
Regarding `Cc1ccccc1CNC(=O)Cn1nc(-c2ccc(F)cc2)oc1=O`, the IC50 is greater than 10 µM.
Turning to `c1ccc(-c2nnc(N3CCCC4(CCOC4)C3)s2)cc1` (stereo not given), the pIC50 worked out at 5.105 and the IC50 is greater than 10 µM.
On to `CC(c1ccco1)N(C(=O)c1cc2c([nH]c1=O)CCCC2=O)C1CC1` (stereo not given), for which the IC50 is greater than 10 µM.
Still for that read-out and setting: in the case of `CC(CNC1CCN(c2ccccn2)CC1)Oc1ccc(F)cc1` (stereo not given) it was greater than 10 µM.
Same read-out and setting: to `CCOCCCn1c(NC(=O)c2cnc(C)s2)nc2ccccc21` belongs greater than 10 µM.
In the case of `O=C(O)C(F)(F)F.O=C(O)c1c(-c2cccnc2)ncc2c1CCN(CC1CCOC1)C2` (stereo not given), the pIC50 is less than 5 and half-maximal inhibition (IC50) required 7.49 µM.
Compound `CCOCCCC(=O)NCc1ccc(N2CCCCC2)cc1` showed an IC50 greater than 10 µM.
Compound `O=c1oc(-c2cccs2)nn1CC(O)c1ccc2c(c1)CCC2` (stereo not given) had an IC50 greater than 10 µM.
In turn, `c1ccc(O[C@H]2COCCN(Cc3c[nH]c4ccccc34)C2)cc1` showed a pIC50 of 5.37 and an IC50 of 6.98 µM.
In turn, `Cc1nn(C)c2nc(N3CCCCC3c3cccnc3)sc12` (stereo not given) gave a pIC50 of 6.07 and an IC50 of 1.24 µM.
In the same order, the values of `CC(C)N1c2sc(-c3ccsc3)nc2CC1C(=O)NC1CCCC1` (stereo not given) are 5.095 and 7.14 µM.
`CCN(CC)C(=O)c1ccc(Cl)c(NC(=O)c2cc[nH]n2)c1` showed a pIC50 of 5.355 and an IC50 of 3.96 µM.
In turn, `COc1ccc(C(C#N)NC(=O)Cc2ccc(F)c(F)c2)c(OC)c1` (stereo not given) showed a pIC50 of 5.528 and an IC50 of 3 µM.
In the same order, the values of `CCc1cc(N(C)Cc2nonc2C)nc(N(C)C)n1` are 5.613 and 1.92 µM.
The matching figures for `Cc1nc(N2CCC3(CCOC3)C2)c2cc[nH]c2n1` (stereo not given): 5.537 and 2.38 µM.
In the same order, the values of `Cc1nn(C)c2nc(N3CCCC3c3nccs3)sc12` (stereo not given) are 5.818 and 1.82 µM.
The compound `CN(C)C(=O)[C@H]1C[C@@H]2CN(S(=O)(=O)Cc3ccccc3)C[C@H]1O2` gave an IC50 greater than 10 µM.
Take `CCc1ccc(CN(C)Cc2nc(COc3ccccc3)no2)nc1`: the pIC50 was determined as 5.105 and the midpoint of inhibition, the IC50, lay at 9.16 µM.
Turning to `CN(C)c1ncc(I)c(C2CCCCN2S(C)(=O)=O)n1` (stereo not given), the IC50 was greater than 10 µM.
With `COCC(=O)Nc1ccc(-c2noc([C@@H]3CCCN3C(C)C)n2)cn1`, the pIC50 is 5.079 and the IC50 is 8.83 µM.
`Cc1ccc(CSc2nc(N)cc(NCCC(=O)N3CCCC3)n2)cc1` gave a pIC50 of 5.181 and an IC50 of 4.89 µM.
The matching figures for `CCCS(=O)(=O)NCc1ncc(C)c(OC)c1C`: 5.88 and 1.37 µM.
The matching figures for `CCn1c(CNC(=O)Nc2nc(C)c(C)o2)nc2ccccc21`: 5.724 and 1.91 µM.
